Measured values reported in US7868204B2, “Inhibitors of histone deacetylase” (MethylGene Inc., priority 2001, dated 2011).

Assays:
HCT116 cells = assay: MTT assay; type: cell-based; conditions: Homo sapiens, HCT-116, 72 h, Table 5F; HCT116 cells, 72 hours
Method in brief: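 Read-out: MTT (0.5 mg/ml final, 4 h) after solubilization in 50% DMF/20% SDS, pH 4.7, with OD translated into cell number via the line's growth curve. Compound treatment lasted 72 h at 37 °C in 5% CO2, starting a day after plating.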

[1] = biological target: T1, cloned recombinant human HDAC-1 (Homo sapiens, UniProt Q13547); assay: Human HDAC-1 enzyme inhibition, Assay 1 ([3H]-acetylated histone substrate, scintillation counting); type: biochemical; conditions: Table 5F; read-out: Human HDAC-1 IC50
T1 construct: made in house; host or cells: Baculovirus insect cell expression system
Method in brief: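 Activity read as [3H]-acetic acid liberated from labeled substrate, ethyl acetate-extracted and scintillation-counted. Compounds preincubated 30 min at 4° C. with baculovirus-expressed, purified human HDAC-1. Dose-response curves give IC50 as concentration producing fifty percent of maximal inhibition.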

[2] = tested on: acetylated histone H-4 in T24 human bladder cancer cells; assay: Histone H4 acetylation in whole cells by immunoblots; type: cell-based; conditions: T-24, Table 5F, 16 h, read-out: H4 Ac (T24) EC50
Method in brief: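 Acetylated histone H4 was quantified by densitometry of ECL-developed immunoblots, probed with a polyclonal antibody, of […] total histone from T24 cultures exposed 16 h to HDAC inhibitors.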

T1 sequence (Q13547 whole entry): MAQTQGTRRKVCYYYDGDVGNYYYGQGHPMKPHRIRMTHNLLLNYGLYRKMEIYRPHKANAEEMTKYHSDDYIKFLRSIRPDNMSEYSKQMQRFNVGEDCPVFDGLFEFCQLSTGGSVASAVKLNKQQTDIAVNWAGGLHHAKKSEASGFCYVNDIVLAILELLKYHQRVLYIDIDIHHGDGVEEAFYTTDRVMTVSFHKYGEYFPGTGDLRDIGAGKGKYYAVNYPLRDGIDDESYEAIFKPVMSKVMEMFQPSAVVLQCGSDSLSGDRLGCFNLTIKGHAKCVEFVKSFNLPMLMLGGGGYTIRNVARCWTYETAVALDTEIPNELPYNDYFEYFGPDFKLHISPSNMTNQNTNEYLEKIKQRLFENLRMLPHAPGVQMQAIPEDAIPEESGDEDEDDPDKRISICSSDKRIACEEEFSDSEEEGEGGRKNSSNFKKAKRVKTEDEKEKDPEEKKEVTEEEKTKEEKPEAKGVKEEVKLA

| SMILES | IC50 (HCT116 cells) [µM] | IC50 [1] [µM] | EC50 [2] [µM] |
| --- | --- | --- | --- |
| Cc1c(Cc2ccc(C(=O)Nc3ccccc3N)cc2)sc(NC(=O)c2ccccc2)c1C#N [Cpd 360, 4-(5-Benzoylamino-4-cyano-3-methyl-thiophen-2-ylmethyl)-N-(2-amino-phenyl)-benzamide] | 0.2 | 5 | 1 |
| Cc1c(Cc2ccc(C(=O)Nc3ccccc3N)cc2)sc(NC(=O)Nc2ccccc2)c1C#N [Cpd 361, N-(2-Amino-phenyl)-4-[4-cyano-3-methyl-5-(3-phenyl-ureido)-thiophen-2-ylmethyl]-benzamide] | 0.5 | 2 | 1 |
| COc1ccc(C2C=CC(c3ccc(C(=O)Nc4ccccc4N)cc3)O2)cc1 (stereo not drawn) [Cpd 367, N-(2-Amino-phenyl)-4-[5-(4-methoxy-phenyl)-2,5-dihydro-furan-2-yl]-benzamide] | 2 | 6 | 5 |
| COc1ccc(NC(=O)N(Cc2ccc(C(=O)Nc3ccccc3N)cc2)c2ccc(OC)c(OC)c2)cc1OC [Cpd 371, N-(2-Amino-phenyl)-4-[1,3-bis-(3,4-dimethoxy-phenyl)-ureidomethyl]-benzamide] | 0.5 | 4 | 2 |
| COc1ccc(N(Cc2ccc(C(=O)Nc3ccccc3N)cc2)C(=O)Nc2ccc(Cl)cc2)cc1OC [Cpd 372, N-(2-Amino-phenyl)-4-[3-(4-chloro-phenyl)-1-(3,4-dimethoxy-phenyl)-ureidomethyl]-benzamide] | 0.2 | 2 | 1 |
| COc1ccc(N(Cc2ccc(C(=O)Nc3ccccc3N)cc2)C(=O)Nc2ccccc2)cc1OC [Cpd 373, N-(2-Amino-phenyl)-4-[1-(3,4-dimethoxy-phenyl)-3-phenyl-ureidomethyl]-benzamide] | 0.4 | 4 | 1 |
| COc1ccc(N(Cc2ccc(C(=O)Nc3ccccc3N)cc2)C(=O)Nc2ccc(Oc3ccccc3)cc2)cc1OC [Cpd 374, N-(2-Amino-phenyl)-4-[1-(3,4-dimethoxy-phenyl)-3-(4-phenoxy-phenyl)-ureidomethyl]-benzamide] | 0.3 | 2.5 | 1 |
| Nc1ccccc1NC(=O)c1ccc(-c2ccc(C(=O)Nc3ccccc3N)cc2)cc1 [Cpd 375, Biphenyl-4,4′-dicarboxylic acid bis-[(2-amino-phenyl)-amide]] | 4 | 3 | 25 |

More lines, now with the values ahead:

| IC50 (HCT116 cells) [µM] | IC50 [1] [µM] | EC50 [2] [µM] | SMILES |
| --- | --- | --- | --- |
| 0.7 | 2 | 1 | Nc1ccccc1NC(=O)c1ccc(CN2C(=O)COc3ccccc32)cc1 [Cpd 362, N-(2-Amino-phenyl)-4-(3-oxo-2,3-dihydro-benzo[1,4]oxazin-4-ylmethyl)-benzamide] |
| 0.3 | 1 | 3 | Nc1ccccc1NC(=O)c1ccc(CN2C(=O)CSc3ccccc32)cc1 [Cpd 363, N-(2-Amino-phenyl)-4-(3-oxo-2,3-dihydro-benzo[1,4]thiazin-4-ylmethyl)-benzamide] |
| 0.6 | 3 | 3 | Nc1ccccc1NC(=O)c1ccc(CC2C(=O)c3ccccc3C2O)cc1 (stereo not drawn) [Cpd 365, N-(2-Amino-phenyl)-4-(1-hydroxy-3-oxo-indan-2-ylmethyl)-benzamide] |
| 2 | 4 | 3 | Nc1ccccc1NC(=O)c1ccc(CNc2ncccn2)cc1 [Cpd 377] |
| 0.7 | 2 | 2 | Cc1cc(C)nc(SCc2ccc(C(=O)Nc3ccccc3N)cc2)n1 [Cpd 378, N-(2-Amino-phenyl)-4-(4,6-dimethyl-pyrimidin-2-ylsulfanylmethyl)-benzamide] |
| 0.6 | 2 | 15 | Nc1ccccc1NC(=O)c1ccc(CSc2nccc(C(F)(F)F)n2)cc1 [Cpd 379, N-(2-Amino-phenyl)-4-(4-trifluoromethyl-pyrimidin-2-ylsulfanylmethyl)-benzamide] |
| 1 | 2 | 2 | Nc1ccccc1NC(=O)c1ccc(CSc2ccccn2)cc1 [Cpd 381] |
